Results: patent US9630963B2, “Quinolone derivatives as fibroblast growth factor inhibitors” (Principia Biopharma, Inc., priority 2013, dated 2017)
pIC50: −log10 of the molar value.

How the values were obtained:
[1] = molecular target: human recombinant FGFR1 (Homo sapiens, UniProt P11362); assay: FGFR family enzymatic activity assay (Caliper-based kinase assay), FGFR1; type: biochemical; conditions: FGFR1 0.5 nM, ATP 100 μM, peptide substrate 1 μM, room temperature 3 h
Text: A Caliper-based kinase assay (Caliper Life Sciences, Hopkinton, Mass.) was used to measure inhibition of FGFR family (FGFR1, FGFR2, FGFR3, FGFR4) kinase activity of a compound of Formula (I′) or (I). […] This value is presented as the IC50.

[2] = system: SNU-16 cells; assay: Inhibition of FGFR2-dependent cell growth (Cell-titer Glo); type: cell-based; conditions: Homo sapiens, SNU16 cells, 72 hrs incubation, cell viability by Cell-titer Glo
Procedure: The cell-based effects of FGFR inhibitors were determined by measuring inhibition of FGFR-dependent cell line growth. […] Percent inhibition of cell growth was calculated as a percentage of untreated cell viability. The percent inhibition was plotted as a function of log compound concentration. The IC50 was then calculated for each compound using Prism software from GraphPad.

Chain of human recombinant FGFR1 (P11362 22-822): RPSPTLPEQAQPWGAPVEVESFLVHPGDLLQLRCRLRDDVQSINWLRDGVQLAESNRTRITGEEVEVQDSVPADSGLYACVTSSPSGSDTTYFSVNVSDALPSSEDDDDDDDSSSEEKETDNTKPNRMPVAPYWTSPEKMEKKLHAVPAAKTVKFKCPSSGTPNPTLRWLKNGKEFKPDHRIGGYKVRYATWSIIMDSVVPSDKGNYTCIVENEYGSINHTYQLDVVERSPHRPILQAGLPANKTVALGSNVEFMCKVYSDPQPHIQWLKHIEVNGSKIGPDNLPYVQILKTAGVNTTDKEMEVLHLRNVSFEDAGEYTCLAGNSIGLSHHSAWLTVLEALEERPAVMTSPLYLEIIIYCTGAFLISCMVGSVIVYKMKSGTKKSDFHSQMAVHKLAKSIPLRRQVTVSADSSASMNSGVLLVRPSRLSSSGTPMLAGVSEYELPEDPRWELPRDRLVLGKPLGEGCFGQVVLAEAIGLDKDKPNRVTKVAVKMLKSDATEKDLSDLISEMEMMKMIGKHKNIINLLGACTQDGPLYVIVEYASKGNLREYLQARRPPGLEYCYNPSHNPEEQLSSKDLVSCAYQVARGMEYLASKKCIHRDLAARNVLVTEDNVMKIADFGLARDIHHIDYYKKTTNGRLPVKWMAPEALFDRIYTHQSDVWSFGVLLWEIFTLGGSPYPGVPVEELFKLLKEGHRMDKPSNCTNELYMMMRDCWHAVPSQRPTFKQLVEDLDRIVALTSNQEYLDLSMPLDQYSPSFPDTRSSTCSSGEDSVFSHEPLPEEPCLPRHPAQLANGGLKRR

For `C=CC(=O)Nc1ccc(CCn2c(=O)c(-c3cc(OC)cc(OC)c3Cl)cc3cnc(NCC4(O)CCN(C)CC4)nc32)cc1` [Example 96, N-(4-(2-(6-(2-chloro-3,5-dimethoxyphenyl)-2-(((4-hydroxy-1-methylpiperidin-4-yl)methyl)-amino)-7-oxopyrido[2,3-d]pyrimidin-8(7H)-yl)ethyl)phenyl)acrylamide], the pIC50 [1] was 8.01.
`C=CC(=O)Nc1ccc(CCn2c(=O)c(-c3c(Cl)c(OC)cc(OC)c3Cl)cc3cnc(NC(CC)(CO)CO)nc32)cc1` [Example 92, N-(4-(2-(6-(2,6-dichloro-3,5-dimethoxyphenyl)-2-((1-hydroxy-2-(hydroxymethyl)-butan-2-yl)amino)-7-oxopyrido[2,3-d]pyrimidin-8(7H)-yl)ethyl)phenyl)acrylamide] gave a pIC50 [2] of 8.20 and a pIC50 [1] of 8.96.
`C=CC(=O)Nc1ccc(CCn2c(=O)c(-c3cc(OC)cc(OC)c3Cl)cc3cnc(NCC(C)(C)O)nc32)nc1` [Example 109, N-(6-(2-(6-(2-chloro-3,5-dimethoxyphenyl)-2-((2-hydroxy-2-methylpropyl)amino)-7-oxopyrido[2,3-d]pyrimidin-8(7H)-yl)ethyl)pyridin-3-yl)acrylamide] was tested, and the pIC50 [2] was 8.46 and the pIC50 [1] was 8.80.
With `C=CC(=O)Nc1ccc(CCn2c(=O)c(-c3c(Cl)cccc3Cl)cc3cnc(NC)nc32)cc1` [Example 106, N-(4-(2-(6-(2,6-dichlorophenyl)-2-(methylamino)-7-oxopyrido[2,3-d]pyrimidin-8(7H)-yl)ethyl)phenyl)acrylamide] the pIC50 [1] was 7.53.
Compound `C=CC(=O)Nc1ccc(CCn2c(=O)c(-c3cc(OC)cc(OC)c3Cl)cc3cnc(NCCN4[C@H](C)CNC[C@@H]4C)nc32)cc1` [Example 82, N-(4-(2-(6-(2-chloro-3,5-dimethoxyphenyl)-2-((2-((2R,6S)-2,6-dimethylpiperazin-1-yl)ethyl)amino)-7-oxopyrido[2,3-d]pyrimidin-8(7H)-yl)ethyl)phenyl)acrylamide] has a pIC50 [2] of 7.15 and a pIC50 [1] of 9.30.
Work on `C=CC(=O)Nc1ccc(CCn2c(=O)c(-c3cc(OC)cc(OC)c3Cl)cc3cnc(NCCN4CCS(=O)(=O)CC4)nc32)cc1` [Example 74, N-(4-(2-(6-(2-chloro-3,5-dimethoxyphenyl)-2-((2-(1,1-dioxidothiomorpholino)-ethyl)amino)-7-oxopyrido[2,3-d]pyrimidin-8(7H)-yl)ethyl)phenyl)acrylamide] yielded a pIC50 [2] of 7.88 and a pIC50 [1] of 8.66.
Work on `C=CC(=O)Nc1cn(CCn2c(=O)c(-c3cc(OC)cc(OC)c3Cl)cc3cnc(NC)nc32)cn1` [Example 48, N-(1-(2-(6-(2-chloro-3,5-dimethoxyphenyl)-2-(methylamino)-7-oxopyrido[2,3-d]-pyrimidin-8(7H)-yl)ethyl)-1H-imidazol-4-yl)acrylamide] yielded a pIC50 [1] of 7.32.
In the case of `C=CC(=O)Nc1ccc(CCn2c(=O)c(-c3c(Cl)c(OC)cc(OC)c3Cl)cc3cnc(NC(C)(CO)CO)nc32)nc1` [Example 99, N-(6-(2-(6-(2,6-dichloro-3,5-dimethoxyphenyl)-2-((1,3-dihydroxy-2-methylpropan-2-yl)-amino)-7-oxopyrido[2,3-d]pyrimidin-8(7H)-yl)ethyl)pyridin-3-yl)acrylamide], the pIC50 [2] was 8.59 and the pIC50 [1] was 8.92.
For `C=CC(=O)Nc1ccc(CCn2c(=O)c(-c3cc(OC)cc(OC)c3Cl)cc3cnc(NCCN4C[C@@H](C)N[C@@H](C)C4)nc32)cc1` [Example 85, N-(4-(2-(6-(2-chloro-3,5-dimethoxyphenyl)-2-((2-((3S,5R)-3,5-dimethylpiperazin-1-yl)ethyl)amino)-7-oxopyrido[2,3-d]pyrimidin-8(7H)-yl)ethyl)phenyl)acrylamide], the pIC50 [1] was 8.92.
`C=CC(=O)Nc1ccc(CCn2c(=O)c(-c3cc(OC)cc(OC)c3Cl)cc3cnc(NCCN4CCC(F)(F)CC4)nc32)cc1` [Example 111, N-(4-(2-(6-(2-chloro-3,5-dimethoxyphenyl)-2-((2-(4,4-difluoropiperidin-1-yl)-ethyl)amino)-7-oxopyrido[2,3-d]pyrimidin-8(7H)-yl)ethyl)phenyl)acrylamide] gave a pIC50 [1] of 8.47.
For `CNc1ncc2cc(-c3cc(OC)cc(OC)c3Cl)c(=O)n(CCc3cccc(NC(=O)/C=C/CN(C)C)c3)c2n1` [Example 23, (E)-N-(3-(2-(6-(2-chloro-3,5-dimethoxyphenyl)-2-(methylamino)-7-oxopyrido[2,3-d]pyrimidin-8(7H)-yl)ethyl)phenyl)-4-(dimethylamino)but-2-enamide], the pIC50 [2] was 9.00 and the pIC50 [1] was 8.92.
`C=CC(=O)Nc1cccc(CCn2c(=O)c(-c3cc(OC)cc(OC)c3F)cc3cnc(NCCCCN(CC)CC)nc32)c1` [Example 42, N-(3-(2-(6-(2-fluoro-3,5-dimethoxyphenyl)-2-(4-diethylaminobutylamino)-7-oxopyrido[2,3-d]pyrimidin-8(7H)-yl)ethyl)phenyl)acrylamide] showed a pIC50 [1] of 8.74.
With `C=CC(=O)Nc1ccc(CCn2c(=O)c(-c3cc(OC)cc(OC)c3Cl)cc3cnc(NCCN4CCOCC4)nc32)c(F)c1` [Example 55, N-(4-(2-(6-(2-chloro-3,5-dimethoxyphenyl)-2-((2-morpholinoethyl)amino)-7-oxopyrido[2,3-d]pyrimidin-8(7H)-yl)ethyl)-3-fluorophenyl)acrylamide] the pIC50 [2] was 8.37 and the pIC50 [1] was 8.66.
Compound `C=CC(=O)Nc1ccc(CCn2c(=O)c(-c3cc(OC)cc(OC)c3Cl)cc3cnc(NCCN4CCOCC4)nc32)cn1` [Example 31, N-(5-(2-(6-(2-chloro-3,5-dimethoxyphenyl)-2-(2-morpholinoethylamino)-7-oxopyrido[2,3-d]pyrimidin-8(7H)-yl)ethyl)pyridin-2-yl)acrylamide] has a pIC50 [2] of 8.44 and a pIC50 [1] of 8.85.
With `C=CC(=O)Nc1ccc(CCn2c(=O)c(-c3cc(OC)cc(OC)c3Cl)cc3cnc(NCC(C)(C)O)nc32)cc1` [Example 24, N-(4-(2-(6-(2-chloro-3,5-dimethoxyphenyl)-2-((2-hydroxy-2-methylpropyl)amino)-7-oxopyrido[2,3-d]pyrimidin-8(7H)-yl)ethyl)phenyl)acrylamide] the pIC50 [2] was 8.74 and the pIC50 [1] was 8.77.
`C=CC(=O)Nc1ccc(CCn2c(=O)c(-c3c(Cl)cccc3Cl)cc3cnc(NC)nc32)nc1` [Example 107, N-(6-(2-(6-(2,6-dichlorophenyl)-2-(methylamino)-7-oxopyrido[2,3-d]pyrimidin-8(7H)-yl)ethyl)pyridin-3-yl)acrylamide] showed a pIC50 [1] of 7.90.
`C=CC(=O)Nc1ccc(CCn2c(=O)c(-c3cc(OC)cc(OC)c3Cl)cc3cnc(NCCN4CCOCC4)nc32)cc1Cl` [Example 56, N-(4-(2-(6-(2-chloro-3,5-dimethoxyphenyl)-2-((2-morpholinoethyl)amino)-7-oxopyrido[2,3-d]pyrimidin-8(7H)-yl)ethyl)-2-chlorophenyl)acrylamide] gave a pIC50 [2] of 8.30 and a pIC50 [1] of 8.43.
`C=CC(=O)Nc1nc(CCn2c(=O)c(-c3c(Cl)c(OC)cc(OC)c3Cl)cc3cnc(NC)nc32)cs1` [Example 41, N-(4-(2-(6-(2,6-dichloro-3,5-dimethoxyphenyl)-2-(methylamino)-7-oxopyrido[2,3-d]pyrimidin-8(7H)-yl)ethyl)thiazol-2-yl)acrylamide] gave a pIC50 [2] of under 6.48 and a pIC50 [1] of 8.30.
`CNc1ncc2cc(-c3cc(OC)cc(OC)c3Cl)c(=O)n(CCc3ccc(NC(=O)/C=C/CN(C)C)cc3)c2n1` [Example 22, (E)-N-(4-(2-(6-(2-chloro-3,5-dimethoxyphenyl)-2-(methylamino)-7-oxopyrido[2,3-d]pyrimidin-8(7H)-yl)ethyl)phenyl)-4-(dimethylamino)but-2-enamide] was tested, and the pIC50 [2] was 9.00 and the pIC50 [1] was 9.40.
`C=CC(=O)Nc1ccc(CCn2c(=O)c(-c3c(Cl)c(OC)cc(OC)c3Cl)cc3cnc(NCC)nc32)nc1` [Example 79, N-(6-(2-(6-(2,6-dichloro-3,5-dimethoxyphenyl)-2-(ethylamino)-7-oxopyrido[2,3-d]pyrimidin-8(7H)-yl)ethyl)pyridin-3-yl)acrylamide] was tested, and the pIC50 [2] was 8.47 and the pIC50 [1] was 9.70.
With `C=CC(=O)Nc1ccc(CCn2c(=O)c(-c3cc(OC)cc(OC)c3Cl)cc3cnc(Nc4ccccn4)nc32)nc1` [Example 108, N-(6-(2-(6-(2-chloro-3,5-dimethoxyphenyl)-7-oxo-2-(pyridin-2-ylamino)pyrido[2,3-d]pyrimidin-8(7H)-yl)ethyl)pyridin-3-yl)acrylamide] the pIC50 [1] was 8.09.
For `C=CC(=O)Nc1ccc(CCn2c(=O)c(-c3cc(OC)cc(OC)c3Cl)cc3cnc(NC(C)(CO)CO)nc32)cc1` [Example 95, N-(4-(2-(6-(2-chloro-3,5-dimethoxyphenyl)-2-((1,3-dihydroxy-2-methylpropan-2-yl)amino)-7-oxopyrido[2,3-d]pyrimidin-8(7H)-yl)ethyl)phenyl)acrylamide], the pIC50 [1] was 8.21.
`C=CC(=O)Nc1ccc(CCn2c(=O)c(-c3cc(OC)cc(OC)c3Cl)cc3cnc(NCCN(CC)CC)nc32)cn1` [Example 29, N-(5-(2-(6-(2-chloro-3,5-dimethoxyphenyl)-2-((2-(diethylamino)ethyl)amino)-7-oxopyrido[2,3-d]pyrimidin-8(7H)-yl)ethyl)pyridin-2-yl)acrylamide] gave a pIC50 [1] of 7.31.
For `C=CC(=O)Nc1ccc(CCn2c(=O)c(-c3cc(OC)cc(OC)c3Cl)cc3cnc(NCC(C)(C)N4CCOCC4)nc32)cc1` [Example 110, N-(4-(2-(6-(2-chloro-3,5-dimethoxyphenyl)-2-((2-methyl-2-morpholinopropyl)-amino)-7-oxopyrido[2,3-d]pyrimidin-8(7H)-yl)ethyl)phenyl)acrylamide], the pIC50 [1] was 8.72.
In the case of `C=CC(=O)Nc1ccc(CCn2c(=O)c(-c3c(Cl)c(OC)cc(OC)c3Cl)cc3cnc(NC(CC)(CO)CO)nc32)nc1` [Example 100, N-(6-(2-(6-(2,6-dichloro-3,5-dimethoxyphenyl)-2-((1-hydroxy-2-(hydroxymethyl)-butan-2-yl)amino)-7-oxopyrido[2,3-d]pyrimidin-8(7H)-yl)ethyl)pyridin-3-yl)acrylamide], the pIC50 [2] was 7.58.
